The record followed here is ChEMBL document CHEMBL5131512, “Novel niclosamide-derived adjuvants elevating the efficacy of polymyxin B against MDR Pseudomonas aeruginosa DK2” (Eur J Med Chem, 2022).

The subject of series [1] is Pseudomonas aeruginosa. In words: Antimicrobial activity against clinical isolate CF333-2007 Pseudomonas aeruginosa DK2 measured after 18 hrs in presence of polymyxin B by microbroth dilution assay. It is filed as functional. Background: In broth dilution the organism is exposed to a series of concentrations in liquid medium.
Series [2] has as its system Pseudomonas aeruginosa. The series can be described thus: Synergistic antibacterial activity against clinical isolate CF333-2007 Pseudomonas aeruginosa DK2 assessed as fractional inhibitory concentration index incubated for 18 hrs in presence of Polymyxin B. It is filed as functional.
The subject of series [3] is Pseudomonas aeruginosa. In words: Antimicrobial activity against clinical isolate CF333-2007 Pseudomonas aeruginosa DK2 measured after 18 hrs by microbroth dilution assay. It is filed as functional.
Series [4] relates to Pseudomonas aeruginosa. The series can be described thus: Antimicrobial activity against clinical isolate CF333-2007 Pseudomonas aeruginosa DK2 assessed as polymyxin B MIC measured after 18 hrs by microbroth dilution assay. It is filed as functional.
The subject of series [5] is Pseudomonas aeruginosa. In words: Drug resistance against pseudomonas aeruginosa DK2 assessed as fold increase in MIC measured after repeated passaging for 14 days. It is filed as functional. The conditions noted are these: time 14 day.
Series [6] relates to Pseudomonas aeruginosa. The series can be described thus: Antibacterial activity against Pseudomonas aeruginosa DK2 assessed as reduction in bacterial growth at 0.5 ug/ml measured after 24 hrs by time kill assay. It is filed as functional. The conditions noted are these: dose 0.5 µg/ml.
Series [7] deals with Pseudomonas aeruginosa. In words: Antibacterial activity against Pseudomonas aeruginosa PAO1 infected in Caenorhabditis elegans N2 worms at 16 ug/ml. It is filed as functional, organism-based. The conditions noted are these: dose 16.0 µg/ml.
For series [8], the system named is Pseudomonas aeruginosa. In words: Drug resistance against pseudomonas aeruginosa DK2 assessed as increase in MIC measured after repeated passaging for 14 days. It is filed as functional. The conditions noted are these: DK2, 336 h, time 14 day.
Series [9] concerns Escherichia coli. In words: Synergistic antibacterial activity against Escherichia coli 15017 assessed as polymyxin MIC at 8 ug/ml. It is filed as functional. The conditions noted are these: dose 8 µg/ml.
Series [10] relates to Pseudomonas aeruginosa. The series can be described thus: Inhibition of PA3552-lux expression in Pseudomonas aeruginosa DK2 at 1 ug/ml measured after 5 to 8 hrs by microplate reader assay. The conditions noted are these: dose 1.0 µg/ml, time 5-8 hrs. It is filed as functional.
The nature of series [11]: Acute toxicity in ICR mouse assessed as effect on liver at 50 mg/kg, ip administered as single dose measured after 7 days. It is filed as organism-based. The conditions noted are these: in vivo, 168 h, time 7 day.
Series [12] has as its system Pseudomonas aeruginosa. The series can be described thus: Antibacterial activity against Pseudomonas aeruginosa PAO1 assessed as reduction in bacterial growth at 2 ug/ml measured after 24 hrs in presence of polymyxin B by time kill assay. It is filed as functional. The conditions noted are these: dose 2 µg/ml.
Series [13] is described as follows: Acute toxicity in ICR mouse assessed as effect on kidney at 50 mg/kg, ip administered as single dose measured after 7 days. The conditions noted are these: in vivo, 168 h, time 7 day. It is filed as organism-based.
Series [14] in a line: Acute toxicity in ICR mouse assessed as mortality at 50 mg/kg, ip administered as single dose measured after 2 hrs. It is filed as organism-based. The conditions noted are these: in vivo, read-out: Activity.
The nature of series [15]: Acute toxicity in ICR mouse assessed as effect on spleen at 50 mg/kg, ip administered as single dose measured after 7 days. It is filed as organism-based. The conditions noted are these: in vivo, 168 h, time 7 day.
Series [16] relates to Pseudomonas aeruginosa. In words: Synergistic inhibition of PA3552-lux expression in Pseudomonas aeruginosa DK2 at 1 ug/ml measured after 5 to 8 hrs in presence of polymyxin B by microplate reader assay. It is filed as functional, organism-based. The conditions noted are these: dose 1.0 µg/ml, time 5-8 hrs.
Series [17] is described as follows: Acute toxicity in ICR mouse assessed as effect on lungs at 50 mg/kg, ip administered as single dose measured after 7 days. It is filed as organism-based, Lung. The conditions noted are these: in vivo, 168 h, time 7 day.
The subject of series [18] is Pseudomonas aeruginosa. In words: Suppression of polymyxin drug resistance development against pseudomonas aeruginosa DK2 at 4 ug/ml in presence of polymyxin B after repeated passaging for 14 days. It is filed as functional. The conditions noted are these: dose 4 µg/ml; time 14 day.
The test system of series [19] is Escherichia coli. The series can be described thus: Synergistic antibacterial activity against Escherichia coli 15017 assessed as fold decrease in polymyxin MIC at 8 ug/ml. The conditions noted are these: dose 8 µg/ml. It is filed as functional.
Series [20] relates to Klebsiella pneumoniae. The series can be described thus: Synergistic antibacterial activity against Klebsiella pneumoniae 674 assessed as fold decrease in polymyxin MIC at 8 ug/ml. It is filed as functional. The conditions noted are these: dose 8 µg/ml.
A short description of series [21]: Acute toxicity in ICR mouse assessed as mortality at 50 mg/kg, ip administered as single dose. It is filed as organism-based. The conditions noted are these: in vivo.
For series [22], the system named is Pseudomonas aeruginosa. The series can be described thus: Antibacterial activity against Pseudomonas aeruginosa PAO1 infected in Caenorhabditis elegans N2 worms assessed as colonization of bacteria on intestinal tract at 8 ug/ml in presence of polymyxin B. The conditions noted are these: dose 8.0 µg/ml. It is filed as functional, organism-based.
A short description of series [23]: Acute toxicity in ICR mouse assessed as effect on body weight at 50 mg/kg, ip administered as single dose measured daily for 7 days. The conditions noted are these: in vivo, 168 h, time 7 day. It is filed as organism-based.
Series [24] can be described thus: Acute toxicity in ICR mouse assessed as effect on heart at 50 mg/kg, ip administered as single dose measured after 7 days. It is filed as organism-based. The conditions noted are these: in vivo, 168 h, time 7 day.
The next series deals with Acinetobacter baumannii. The series can be described thus: Synergistic antibacterial activity against Acinetobacter baumannii 186 assessed as fold decrease in polymyxin MIC at 8 ug/ml. It is filed as functional. The conditions noted are these: dose 8 µg/ml.
Series [25] relates to Klebsiella pneumoniae. In words: Synergistic antibacterial activity against Klebsiella pneumoniae 674 assessed as polymyxin MIC at 8 ug/ml. It is filed as functional. The conditions noted are these: dose 8 µg/ml.
For series [26], the system named is Pseudomonas aeruginosa. In words: Antibacterial activity against Pseudomonas aeruginosa DK2 assessed as reduction in bacterial growth at 4 ug/ml measured after 24 hrs in presence […] of polymyxin B by time kill assay. It is filed as functional. The conditions noted are these: dose 4 µg/ml.
Series [27] has as its system Pseudomonas aeruginosa. In words: Synergistic antibacterial activity against Pseudomonas aeruginosa PAO1 infected in Caenorhabditis elegans N2 worms assessed as worms survival at 4 to 8 ug/ml in presence of polymyxin B. It is filed as functional. The conditions noted are these: dose 4-8 µg/ml; at 4 to 8 µg/mL.

Each structure is given as a SMILES string. Values after ≈ are worked out from the molar mass of the structure shown. Active and inactive are the calls of the source. The rule behind the calls is not given here. Bridge positions count the residues as written; N and C are the ends. Square brackets hold non-standard residues; d marks the D form. Peptide text beside a SMILES is read from it. * marks the point of attachment. X1 = CC[C@H](C)CCCCC(=O)*; Dab = NCC[C@H](N)C(=O)O

One may read the MIC as the lowest concentration found to suppress growth. As to `O=C(Nc1ccc([N+](=O)[O-])cc1Cl)c1cc(C(F)(F)F)ccc1O`, the values for the MIC with Pseudomonas aeruginosa [1], against Pseudomonas aeruginosa [3] and in the series with Pseudomonas aeruginosa [4] were 16 µg/mL, greater than 1020 µg/mL and 2 µg/mL, respectively. Moreover, the “fractional inhibitory concentration index (FICI)” value in the series on Pseudomonas aeruginosa [2] is on record as 0.023.
Consider `O=C(Nc1ccc([N+](=O)[O-])cc1Cl)c1ccccc1O`, for which the figures for the MIC with Pseudomonas aeruginosa [1], against Pseudomonas aeruginosa [3] and in the series with Pseudomonas aeruginosa [4] were 2 µg/mL, greater than 1020 µg/mL and 2 µg/mL, respectively. Moreover, the “fractional inhibitory concentration index (FICI)” value in the series with Pseudomonas aeruginosa [2] is listed as 0.01.
As for `O=C(Nc1ccc([N+](=O)[O-])cc1Cl)c1cc(Br)ccc1O`, the MIC with Pseudomonas aeruginosa [1] is 32 µg/mL; against Pseudomonas aeruginosa [3], greater than 1020 µg/mL; in the series with Pseudomonas aeruginosa [4], 1 µg/mL. The “fractional inhibitory concentration index (FICI)” value in the series on Pseudomonas aeruginosa [2] came to 0.066.
For `CC[C@H](C)CCCCC(=O)N[C@@H](CCN)C(=O)N[C@H](C(=O)N[C@@H](CCN)C(=O)N[C@H]1CCNC(=O)[C@H]([C@@H](C)O)NC(=O)[C@H](CCN)NC(=O)[C@H](CCN)NC(=O)[C@H](CC(C)C)NC(=O)[C@@H](Cc2ccccc2)NC(=O)[C@H](CCN)NC1=O)[C@@H](C)O` (X1-[Dab]T[Dab][Dab][Dab][dF]L[Dab][Dab]T; lactam 4-C), in the series on Pseudomonas aeruginosa [5], the “fold change (FC)” value came out at 32. The figures for the MIC in the series with Pseudomonas aeruginosa [3] and with Pseudomonas aeruginosa [8] were 256 µg/mL (≈ 0.213 mM) and 8190 µg/mL, respectively. Further, the Activity in the series with Pseudomonas aeruginosa [6] is given as 6.38 log10CFU/ml. Also, in the series on Pseudomonas aeruginosa [7], the outcome was Active.
For the compound `O=C(Nc1ccc([N+](=O)[O-])cc1Cl)c1ccc(Br)cc1O`, the MIC is 8 µg/mL in the series on Pseudomonas aeruginosa [1], greater than 1020 µg/mL in the series with Pseudomonas aeruginosa [3] and 1 µg/mL in the series with Pseudomonas aeruginosa [4]. Also, the “fractional inhibitory concentration index (FICI)” value with Pseudomonas aeruginosa [2] is on record as 0.012.
Turning to `O=C(Nc1ccccc1)c1cc(Cl)ccc1O`, the results for the MIC in the series on Pseudomonas aeruginosa [1], with Pseudomonas aeruginosa [3] and in the series with Pseudomonas aeruginosa [4] were 4 µg/mL, greater than 1020 µg/mL and 2 µg/mL, respectively. Also, the “fractional inhibitory concentration index (FICI)” value in the series on Pseudomonas aeruginosa [2] amounted to 0.012.
On the same counts, the results for `Cc1ccc(O)c(C(=O)Nc2ccc([N+](=O)[O-])cc2Cl)c1` are 1 µg/mL, greater than 1020 µg/mL, 4 µg/mL and 0.017.
Turning to `O=C(Nc1ccc([N+](=O)[O-])cc1Cl)c1cc(F)ccc1O`, the MIC in the series on Escherichia coli [9] was 0.25 µg/mL; in the series on Pseudomonas aeruginosa [1] it was 4 µg/mL; with Klebsiella pneumoniae [25], 1 µg/mL; against Pseudomonas aeruginosa [3], greater than 1020 µg/mL; in the series with Pseudomonas aeruginosa [4], 1 µg/mL. The inhibition result with Pseudomonas aeruginosa [10] and with Pseudomonas aeruginosa [16] was “Active” in each case. The Activity result in series [11] is reported as “Non-Toxic”; in the series on Pseudomonas aeruginosa [12], greater than 5 log10CFU/ml; in series [13], “Non-Toxic”; in series [15], “Non-Toxic”; in series [17], “Non-Toxic”; with Pseudomonas aeruginosa [18], 100%. For the same compound, the Activity result in series [21] is recorded as “Non-Toxic”; in series [23], “Non-Toxic”; in series [24] it was “Non-Toxic”; in the series with Pseudomonas aeruginosa [26], 2.88 log10CFU/ml. Further, the mortality at 2 h in series [14] turned out to be 80%. Moreover, the “fold change (FC)” value with Escherichia coli [19] is 16; in the series with Klebsiella pneumoniae [20], 256; in the series with Acinetobacter baumannii it was 16. Moreover, the outcome in the series on Pseudomonas aeruginosa [22] was Active. In the series with Pseudomonas aeruginosa [2], the “fractional inhibitory concentration index (FICI)” value worked out at 0.008. Moreover, the Survival with Pseudomonas aeruginosa [27] is recorded as 7.31%.
Turning to `COc1ccc(O)c(C(=O)Nc2ccc([N+](=O)[O-])cc2Cl)c1`, the MIC was 8 µg/mL in the series on Pseudomonas aeruginosa [1], greater than 1020 µg/mL in the series with Pseudomonas aeruginosa [3] and 4 µg/mL in the series on Pseudomonas aeruginosa [4]. In addition, the “fractional inhibitory concentration index (FICI)” value in the series on Pseudomonas aeruginosa [2] turned out to be 0.023.
Regarding `Nc1ccc(NC(=O)c2cc(Cl)ccc2O)c(Cl)c1`, the results for the MIC in the series with Pseudomonas aeruginosa [1], against Pseudomonas aeruginosa [3] and with Pseudomonas aeruginosa [4] were 16 µg/mL, greater than 1020 µg/mL and 8 µg/mL, respectively. Also, the “fractional inhibitory concentration index (FICI)” value with Pseudomonas aeruginosa [2] came out at 0.047.
For `O=C(Nc1ccccc1Cl)c1cc(Cl)ccc1O`, the MIC is 4 µg/mL in the series on Pseudomonas aeruginosa [1], greater than 1020 µg/mL in the series with Pseudomonas aeruginosa [3] and 2 µg/mL with Pseudomonas aeruginosa [4]. Further, the “fractional inhibitory concentration index (FICI)” value with Pseudomonas aeruginosa [2] was 0.012.
Turning to `O=C(Nc1ccc([N+](=O)[O-])cc1Cl)c1cc(F)c(F)cc1O`, the MIC is 8 µg/mL with Pseudomonas aeruginosa [1], greater than 1020 µg/mL against Pseudomonas aeruginosa [3] and 1 µg/mL in the series with Pseudomonas aeruginosa [4]. For the same compound, the “fractional inhibitory concentration index (FICI)” value with Pseudomonas aeruginosa [2] stood at 0.012.
On the same counts, the results for `O=C(Nc1ccc([N+](=O)[O-])cc1Cl)c1cc(Cl)ccc1OC(=O)[C@@H]1CCCN1` are 16 µg/mL, greater than 1020 µg/mL, 16 µg/mL and 0.078.
